The values that follow come from patent US20240368203A1, “DEGRADATION OF (EGFR) BY CONJUGATION OF EGFR INHIBITORS WITH E3 LIGASE LIGAND AND METHODS OF USE” (BeiGene, Ltd., priority 2022, published 2024).

One test concerns EGFR-Del19/T790M/C797S. Nature of the test: EGFR degradation HTRF assay in H1975-clone #28 cells. Format: cell-based. The conditions noted are these: H1975-clone #28 (Del19/T790M/C797S) cells, 16 h treatment; for DC50: IC50 (DC50), read-out: DC50(nM) H1975 # 28 DTC; for Dmax (%) H1975 # 28 DTC: maximum percentage of inhibition (degradation). The procedure:
(§1) H1975-clone #28(Del19/T790M/C797S) and H1975-clone #25(L858R/T790M/C797S). EGFR-Del19/T790M/C797S and EGFR-L858R/T790M/C797S were stably expressed in H1975 cell lines by lentivirus-mediated over-expression, respectively. The EGFR over-expressed cells then underwent knockout, in which the EGFR targeting sgRNA was designed to only target the endogenous EGFR copies and preserve the exogenous EGFR copies. Followed by knockout, the edited H1975 cells were seeded in 96 well plates at the concentration of […], cultured for about 2 weeks to allow single clones formation. The formed clones were screened by DNA sequencing and whole exon sequencing analysis for the desired edition.
(§2) H1975-clone #28, and H1975-clone #25 were finally confirmed as homozygous Del19/T790M/C797S EGFR, and L858R/T790M/C797S EGFR clones, respectively.
(§3) H1975-#25 and H1975-#28 cells are treated with compounds diluted in 0.2% DMSO cell culture medium on day 2, incubate for 16 h, 37° C., 5% CO2. the final concentration of compounds in all assay is start with 10 uM, 5-fold dilution, total 8 doses were included.
(§4) After 16 h treatment, add HTRF lysis buffer to each well; seal the plate and incubate 1 hour at room temperature on a plate shaker; Once the cells are lysed, 16 μL of cell lysate are transferred to a PE 384-well HTRF detection plate; 4 μL of pre-mixed HTRF antibodies are added to each well; Cover the plate with a plate sealer, spin 1000 rpm for 1 min, Incubate overnight at room temperature; Read on BMG PheraStar with HTRF protocol (337 nm-665 nm-620 nm).
(§5) The inhibition (degradation) percentage of the compound was calculated by the following equation:
(§6) Inhibition percentage of Compound=100−100×(Signal−low control)/(High control−low control),
(§7) The IC50 (DC50) value of a compound can be obtained by fitting the following equation
(§8) Wherein, X and Y are known values, and IC50, Hillslope, Top and Bottom are the parameters obtained by fitting with software. Y is the inhibition percentage (calculated from the equation), X is the concentration of the compound; IC50 is the concentration of the compound when the 50% inhibition is reached. The smaller the IC50 value is, the stronger the inhibitory ability of the compound is. Vice versa, the higher the IC50 value is, the weaker the ability the inhibitory ability of the compound is; Hillslope represents the slope of the fitted curve, generally around 1 *; Bottom represents the minimum value of the curve obtained by data fitting, which is generally 0%±20%; Top represents the maximum value of the curve obtained by data fitting, which is generally 100%±20%. The experimental data were fitted by calculating and analyzing with Dotmatics data analysis software.
(Time-resolved FRET reads energy transfer from a long-lived donor to a nearby acceptor.)

Another test concerns the target T1, EGFR-L858R/T790M/C797S (Homo sapiens, UniProt P00533, C797S/L858R/T790M).
T1 construct: expressed in transfected cells; host or cells: H1975-clone #25 (lentiviral over-expression, endogenous EGFR knocked out)
As to the kind of experiment: EGFR degradation HTRF assay in H1975-clone #25 cells. It is filed as cell-based. As to conditions: 16 h treatment; for DC50: H1975-clone #25 (L858R/T790M/C797S) cells, IC50 (DC50), read-out: DC50(nM) H1975 # 25-LTC; for Dmax: NCI-H1975, H1975-clone #25 (L858R/T790M/C797S) cells, maximum percentage of inhibition (degradation), read-out: Dmax (%) H1975 # 25-LTC. The procedure: as §1, §2, §3, §4, §5, §6, §7, §8

T1 sequence (P00533 25-1210 T790M/C797S/L858R): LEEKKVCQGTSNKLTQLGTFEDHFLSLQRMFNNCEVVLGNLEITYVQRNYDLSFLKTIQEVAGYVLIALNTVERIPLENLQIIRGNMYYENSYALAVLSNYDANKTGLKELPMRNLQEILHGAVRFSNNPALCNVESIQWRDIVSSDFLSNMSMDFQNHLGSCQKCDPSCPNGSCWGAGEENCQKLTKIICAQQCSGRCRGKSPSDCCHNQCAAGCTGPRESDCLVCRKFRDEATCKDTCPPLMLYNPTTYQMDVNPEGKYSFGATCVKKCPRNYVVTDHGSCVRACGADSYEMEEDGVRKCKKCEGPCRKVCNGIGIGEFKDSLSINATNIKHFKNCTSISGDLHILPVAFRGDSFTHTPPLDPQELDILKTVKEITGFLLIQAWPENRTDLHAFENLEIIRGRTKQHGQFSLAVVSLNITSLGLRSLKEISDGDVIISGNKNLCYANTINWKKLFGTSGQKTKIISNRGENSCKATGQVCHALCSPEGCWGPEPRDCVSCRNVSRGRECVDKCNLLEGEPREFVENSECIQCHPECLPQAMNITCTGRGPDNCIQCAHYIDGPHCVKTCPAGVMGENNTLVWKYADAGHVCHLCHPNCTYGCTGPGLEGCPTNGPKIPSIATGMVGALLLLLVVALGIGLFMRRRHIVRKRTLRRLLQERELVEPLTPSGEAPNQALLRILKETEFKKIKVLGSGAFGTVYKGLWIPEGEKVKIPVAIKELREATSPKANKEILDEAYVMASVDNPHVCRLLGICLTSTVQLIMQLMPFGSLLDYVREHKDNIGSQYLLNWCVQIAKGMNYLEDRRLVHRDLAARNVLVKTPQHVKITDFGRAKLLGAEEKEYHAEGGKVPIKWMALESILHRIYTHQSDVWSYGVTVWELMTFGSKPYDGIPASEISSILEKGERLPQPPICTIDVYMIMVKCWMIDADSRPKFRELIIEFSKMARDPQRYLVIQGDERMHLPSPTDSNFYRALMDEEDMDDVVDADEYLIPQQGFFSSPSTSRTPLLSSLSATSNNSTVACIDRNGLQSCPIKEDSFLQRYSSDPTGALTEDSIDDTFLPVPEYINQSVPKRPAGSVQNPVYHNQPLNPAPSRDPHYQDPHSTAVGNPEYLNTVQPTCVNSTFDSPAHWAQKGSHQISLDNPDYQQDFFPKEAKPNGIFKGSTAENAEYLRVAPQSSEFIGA

For orientation: DC50 means the midpoint of the concentration-degradation curve. As a reminder, the Dmax is the largest share of the target that was removed. As for `CCc1ncc2c(P(C)(C)=O)c(Nc3nc(Nc4cc(CC)c(N5CCC(N6CCC7(CCN(c8cc(F)c([C@H]9CCC(=O)NC9=O)c(F)c8)CC7)CC6)CC5)cc4OC)ncc3Br)ccc2n1` (single isomer, unassigned) [Example 4], in the test with EGFR-Del19/T790M/C797S, the DC50 stood at 1.5 nM and the “Dmax (%) H1975 # 28 DTC” value is given as 87%. Also, at EGFR-L858R/T790M/C797S, the DC50 is 2.5 nM and the Dmax is 84%.

`CCc1cc(Nc2ncc(Br)c(Nc3ccc4nc(C)c(F)cc4c3P(C)(C)=O)n2)c(OC)cc1N1CCC2(CC1)CCN(C1CC(c3cc(F)c([C@H]4CCC(=O)NC4=O)c(F)c3)C1)CC2` (single isomer, unassigned) [Example 5]: in the test with EGFR-Del19/T790M/C797S, the DC50 stood at 3.1 nM and the “Dmax (%) H1975 # 28 DTC” value was determined as 90%. Besides, at EGFR-L858R/T790M/C797S, the DC50 came out at 3.7 nM and the Dmax came out at 92%.

Consider `CCc1ncc2c(P(C)(C)=O)c(Nc3nc(Nc4cc(CC)c(N5CCC(N6CCN(C7CN(c8cc(F)c([C@H]9CCC(=O)NC9=O)c(F)c8)C7)CC6)CC5)cc4OC)ncc3Br)ccc2n1` (single isomer, unassigned) [Example 7], for which, in the test on EGFR-Del19/T790M/C797S, the half-maximal degradation concentration (DC50) amounted to 2.7 nM and the “Dmax (%) H1975 # 28 DTC” value is 86%. Further, at EGFR-L858R/T790M/C797S, the 50% degradation concentration (DC50) came to 2.9 nM and the maximal degradation (Dmax) was 76%.

As to `CCc1ncc2c(P(C)(C)=O)c(Nc3nc(Nc4cc(CC)c(N5CCC(N6CCN([C@H]7CCN(c8cc(F)c([C@H]9CCC(=O)NC9=O)c(F)c8)C7)CC6)CC5)cc4OC)ncc3Br)ccc2n1` (single isomer, unassigned) [Example 9], in the test with EGFR-Del19/T790M/C797S, the DC50 came to 1.3 nM and the “Dmax (%) H1975 # 28 DTC” value was found to be 86%. In addition, on EGFR-L858R/T790M/C797S, the DC50 is 3.8 nM and the Dmax turned out to be 86%.

For the molecule `CCc1ccc2c(P(C)(C)=O)c(Nc3nc(Nc4cc(CC)c(N5CCC(N6CCN(C7CCN(c8cc(F)c([C@H]9CCC(=O)NC9=O)c(F)c8)CC7)CC6)CC5)cc4OC)ncc3Br)ccc2n1` (single isomer, unassigned) [Example 10], in the test with EGFR-Del19/T790M/C797S, the DC50 came to 2.7 nM and the “Dmax (%) H1975 # 28 DTC” value is recorded as 88%. Further, at EGFR-L858R/T790M/C797S, the 50% degradation concentration (DC50) was 4.9 nM and the Dmax was found to be 91%.

Regarding `CCc1ccc2c(P(C)(C)=O)c(Nc3nc(Nc4cc(CC)c(N5CCC(N6CCC(N7CCN(c8cc(F)c([C@H]9CCC(=O)NC9=O)c(F)c8)CC7)CC6)CC5)cc4OC)ncc3Br)ccc2n1` (single isomer, unassigned) [Example 11], in the test on EGFR-Del19/T790M/C797S, the DC50 stood at 1.8 nM and the “Dmax (%) H1975 # 28 DTC” value came out at 88%. For the same molecule, at EGFR-L858R/T790M/C797S, the DC50 is 0.9 nM and the Dmax worked out at 94%.

Turning to `CCc1cc(Nc2ncc(Br)c(Nc3ccc4nc(C)c(F)cc4c3P(C)(C)=O)n2)c(OC)cc1N1CCC(N2CC(N3CCN(c4cc(F)c([C@H]5CCC(=O)NC5=O)c(F)c4)CC3)C2)CC1` (single isomer, unassigned) [Example 16], in the test on EGFR-Del19/T790M/C797S, the DC50 worked out at 2.8 nM and the “Dmax (%) H1975 # 28 DTC” value was 88%. At EGFR-L858R/T790M/C797S, the half-maximal degradation concentration (DC50) was 1.1 nM and the Dmax turned out to be 85%.

Consider `CCc1cc(Nc2ncc(Br)c(Nc3ccc4nc(C)c(F)cc4c3P(C)(C)=O)n2)c(OC)cc1N1CCC(N2CC3(CCN(c4cc(F)c([C@H]5CCC(=O)NC5=O)c(F)c4)CC3)C2)CC1` (single isomer, unassigned) [Example 18], for which, in the test with EGFR-Del19/T790M/C797S, the DC50 is 1.7 nM and the “Dmax (%) H1975 # 28 DTC” value came out at 91%. Also, on EGFR-L858R/T790M/C797S, the DC50 amounted to 1.7 nM and the Dmax stood at 92%.

For `CCOc1cc(N2CCC(N3CCC4(CC3)CN(c3cc(F)c([C@H]5CCC(=O)NC5=O)c(F)c3)C4)CC2)c(CC)cc1Nc1ncc(Br)c(Nc2ccc3nc(CC)ncc3c2P(C)(C)=O)n1` (single isomer, unassigned) [Example 19], in the test with EGFR-Del19/T790M/C797S, the 50% degradation concentration (DC50) was found to be 1.1 nM and the “Dmax (%) H1975 # 28 DTC” value was determined as 91%. Moreover, at EGFR-L858R/T790M/C797S, the DC50 stood at 1.9 nM and the Dmax was 93%.

Consider `CCc1ncc2c(P(C)(C)=O)c(Nc3nc(Nc4cc(CC)c(N5CCC(N6CC7(CCN(c8cc(F)c([C@H]9CCC(=O)NC9=O)c(F)c8)CC7)C6)CC5)cc4OC)ncc3Br)ccc2n1` (single isomer, unassigned) [Example 20], for which, in the test on EGFR-Del19/T790M/C797S, the DC50 amounted to 2.9 nM and the “Dmax (%) H1975 # 28 DTC” value is recorded as 90%. Further, at EGFR-L858R/T790M/C797S, the DC50 was 1.4 nM and the Dmax was determined as 92%.

As for `CCc1ccc2c(P(C)(C)=O)c(Nc3nc(Nc4cc(CC)c(N5CCC(N6CC7(CN(c8cc(F)c([C@H]9CCC(=O)NC9=O)c(F)c8)C7)C6)CC5)cc4OC)ncc3Br)ccc2n1` (single isomer, unassigned) [Example 27], in the test on EGFR-Del19/T790M/C797S, the DC50 came to 1.3 nM and the “Dmax (%) H1975 # 28 DTC” value came out at 91%. Besides, at EGFR-L858R/T790M/C797S, the DC50 worked out at 2.4 nM and the Dmax came to 92%.

For the molecule `CCc1cc(Nc2ncc(Br)c(Nc3ccc4nc(C)c(F)cc4c3P(C)(C)=O)n2)c(OC)cc1N1CCC2(CCN(C(=O)CN3CCC(c4ccc(NC5CCC(=O)NC5=O)cc4)CC3)CC2)CC1` (single isomer, unassigned) [Example 29, 3-((4-(1-(2-(9-(4-((5-bromo-4-((5-(dimethylphosphoryl)-3-fluoro-2-methylquinolin-6-yl)amino)pyrimidin-2-yl)amino)-2-ethyl-5-methoxyphenyl)-3,9-diazaspiro[5.5]undecan-3-yl)-2-oxoethyl)piperidin-4-yl)phenyl)amino)piperidine-2,6-dione], in the test on EGFR-Del19/T790M/C797S, the half-maximal degradation concentration (DC50) was 3.1 nM and the “Dmax (%) H1975 # 28 DTC” value was 88%. Moreover, at EGFR-L858R/T790M/C797S, the DC50 was determined as 3.8 nM and the Dmax was found to be 96%.

As for `CCc1ccc2c(P(C)(C)=O)c(Nc3nc(Nc4cc(CC)c(N5CCC(N6CCC(N7CC(c8cc(F)c([C@H]9CCC(=O)NC9=O)c(F)c8)C7)CC6)CC5)cc4OC)ncc3Br)ccc2n1` (single isomer, unassigned) [Example 30], in the test with EGFR-Del19/T790M/C797S, the half-maximal degradation concentration (DC50) was found to be 13.3 nM and the “Dmax (%) H1975 # 28 DTC” value is 87%. At EGFR-L858R/T790M/C797S, the DC50 stood at 10.8 nM and the Dmax is 89%.

With `CCc1cc(Nc2ncc(Br)c(Nc3ccc4nc(C)c(F)cc4c3P(C)(C)=O)n2)c(OC)cc1N1CCC2(CCN(CCNc3cc(F)c([C@H]4CCC(=O)NC4=O)c(F)c3)CC2)CC1` (single isomer, unassigned) [Example 43], in the test on EGFR-Del19/T790M/C797S, the DC50 stood at 3.7 nM and the “Dmax (%) H1975 # 28 DTC” value is recorded as 87%. Also, at EGFR-L858R/T790M/C797S, the DC50 worked out at 4.6 nM and the maximal degradation (Dmax) came to 90%.

Consider `CCc1cc(Nc2ncc(Br)c(Nc3ccc4nc(C)c(F)cc4c3P(C)(C)=O)n2)c(OC)cc1N1CCC2(CC1)CCN(C1CCN(c3cc(F)c([C@H]4CCC(=O)NC4=O)c(F)c3)CC1)CC2` [Example 1, (R)-3-(4-(4-(9-(4-((5-bromo-4-((5-(dimethylphosphoryl)-3-fluoro-2-methylquinolin-6-yl)amino)pyrimidin-2-yl)amino)-2-ethyl-5-methoxyphenyl)-3,9-diazaspiro[5.5]undecan-3-yl)piperidin-1-yl)-2,6-difluorophenyl)piperidine-2,6-dione], for which, in the test with EGFR-Del19/T790M/C797S, the DC50 is 2.2 nM and the “Dmax (%) H1975 # 28 DTC” value is reported as 89%. On EGFR-L858R/T790M/C797S, the DC50 turned out to be 3.4 nM and the Dmax amounted to 92%.

`CCc1cc(Nc2ncc(Cl)c(Nc3ccc4nc(C)c(F)cc4c3P(C)(C)=O)n2)c(OC)cc1N1CCC2(CC1)CCN(C1CCN(c3cc(F)c([C@H]4CCC(=O)NC4=O)c(F)c3)CC1)CC2` [Example 2, (R)-3-(4-(4-(9-(4-((5-chloro-4-((5-(dimethylphosphoryl)-3-fluoro-2-methylquinolin-6-yl)amino)pyrimidin-2-yl)amino)-2-ethyl-5-methoxyphenyl)-3,9-diazaspiro[5.5]undecan-3-yl)piperidin-1-yl)-2,6-difluorophenyl)piperidine-2,6-dione]: in the test with EGFR-Del19/T790M/C797S, the DC50 came to 3.5 nM and the “Dmax (%) H1975 # 28 DTC” value was found to be 89%. At EGFR-L858R/T790M/C797S, the DC50 was determined as 3.4 nM and the Dmax was 92%.
